Results reported in patent publication US4644000A, “Microbicidal agents containing 2-(1H-pyrazol-1-yl)-4-(3H)-quinazolinones” (Bayer Aktiengesellschaft, priority 1984, dated 1987).
≈ marks a conversion by molar mass, not a printed value.

Experiments:
[1] = tested on: Aspergillus niger; experiment: MIC in beerwort/peptone agar, Aspergillus niger; assay type: cell-based; settings: 28° C., 60 to 70% relative humidity, 2 weeks; for MIC: Aspergillus niger, 336 h
Description: (§1) Active compounds according to the invention are added in concentrations of 0.1 mg/1 to 5,000 mg/1 to an agar prepared from beerwort and peptone. After storage at 28° C. and 60 to 70% relative atmospheric humidity for 2 weeks, the MIC is determined. The MIC is the lowest concentration of active compound at which no growth at all by the species of microbes used takes place, and is given in Table 1.

[2] = tested on: Aureobasidium pullulans; experiment: MIC in beerwort/peptone agar, Aureobasidium pullulans; assay type: cell-based; settings: 28° C., 60 to 70% relative humidity, 2 weeks; for MIC: Aureobasidium pullulans, 336 h
Description: as §1

[3] = tested on: Alternaria tenuis; experiment: MIC in beerwort/peptone agar, Alternaria tenuis; assay type: cell-based; settings: 28° C., 60 to 70% relative humidity, 2 weeks; for MIC: Alternaria alternata, 336 h
Description: as §1

[4] = tested on: Trichoderma viride; experiment: MIC in beerwort/peptone agar, Trichoderma viride; assay type: cell-based; settings: 28° C., 60 to 70% relative humidity, 2 weeks; for MIC: Trichoderma viride, 336 h
Description: as §1

[5] = tested on: Polyporus versicolor; experiment: MIC in beerwort/peptone agar, Polyporus versicolor; assay type: cell-based; settings: 28° C., 60 to 70% relative humidity, 2 weeks; for MIC: Trametes versicolor, 336 h
Description: as §1

[6] = tested on: Sclerophoma pityophila; experiment: MIC in beerwort/peptone agar, Sclerophoma pityophila; assay type: cell-based; settings: 28° C., 60 to 70% relative humidity, 2 weeks; for MIC: Sydowia polyspora, 336 h
Description: as §1

[7] = tested on: slime organisms; experiment: MIC against slime organisms in Allens nutrient solution; assay type: cell-based; settings: 504 h, about 10^6 germs/ml, 3 weeks at room temperature
Description: Compounds according to the invention are used in concentrations of in each case 0.1 to 100 mg/l in Allens nutrient solution (Arch. Mikrobiol. 17, 34 to 53 (1952)), which contains, in 4 l of sterile water, 0.2 g of ammonium chloride, 4.0 g of sodium nitrate, 1.0 g of dipotassium hydrogen phosphate, 0.2 g of calcium chloride, 2.05 g of magnesium sulphate, 0.02 g of iron chloride and 1% of caprolactam, dissolved in a little acetone. Shortly beforehand, the nutrient solutions are infected with slime organisms (about 10^6 germs/ml), which have been isolated from the spinning water circulations used in the production of polyamide. Nutrient solutions which contain the minimum inhibitory concentration (MIC) or higher concentrations of active compound are still completely clear after culture for 3 weeks at room temperature, that is to say the pronounced reproduction of the microbes and slime formation noticeable after 3 to 4 days in nutrient solutions containing no active compounds are absent.

[8] = tested on: Lentinus tigrinus; experiment: MIC in beerwort/peptone agar, Lentinus tigrinus; assay type: cell-based; settings: 28° C., 60 to 70% relative humidity, 2 weeks; for MIC: Lentinus tigrinus, 336 h
Description: as §1

[9] = tested on: Coniophora puteana; experiment: MIC in beerwort/peptone agar, Coniophora puteana; assay type: cell-based; settings: 28° C., 60 to 70% relative humidity, 2 weeks; for MIC: Coniophora puteana, 336 h
Description: as §1

[10] = tested on: Penicillium glaucum; experiment: MIC in beerwort/peptone agar, Penicillium glaucum; assay type: cell-based; settings: 28° C., 60 to 70% relative humidity, 2 weeks; for MIC: Penicillium, 336 h
Description: as §1

[11] = tested on: Chaetomium globosum; experiment: MIC in beerwort/peptone agar, Chaetomium globosum; assay type: cell-based; settings: 28° C., 60 to 70% relative humidity, 2 weeks; for MIC: Chaetomium globosum, 336 h
Description: as §1

[12] = Water solubility of potassium salt; assay type: physicochemical
Description: 12.3 g (0.05 mole) of 2-(1H-pyrazol-1-yl)-6-chloro-4(3H)-quinazolinone (=compound from Example 4) are stirred in 1 liter of water with 45 ml of 1 N KOH for 1 hour. Residues of the starting material which have remained undissolved are removed, the clear solution is evaporated in vacuo and the solid residue is dried at 110° C. to give 12.2 g of water-soluble potassium salt of the quinazolinone employed.

[13] = tested on: fungi; experiment: Mould resistance of PVA emulsion paint films (paint fungicide test, Report 219 Defense Standards Laboratories); settings: 28° to 30° C., 90 to 95% relative humidity, evaluated after 3 weeks; active compound E: even after ageing
Description: Testing is carried out in accordance with the method in Report 219 of the Defense Standards Laboratories Maribyrnong/Australia as follows: a smooth card is coated on both sides with the paint to be tested and is dried at room temperature for 8 days. For ageing, part of the paint film is kept in running water of 24° for 24 hours, or aerated with fresh air of 40° to 60° C. for 8 days, or subjected to a dry Xenon test for 110 hours. Pieces of 5×5 cm cut out from the samples thus prepared are placed individually on a glucose nutrient medium in Petri dishes and contaminated with a spore suspension of the following fungi: Aspergillus niger, Aureobasidium pullulans, Alternaria tenuis, Penicillium citrinum, Stachybotrys atra, Paecilomyces varioti, Cladosporium herbarum, Aspergillus ustus and Aspergillus flavus.
The contaminated dishes are stored at 28° to 30° C. and 90 to 95% relative atmospheric humidity, and are evaluated after 3 weeks. Paint films are regarded as mould-resistant if the samples remain free from fungi after these tests.
A commercially available emulsion paint based on PVA is tested for mould resistance by the test method described above.

[14] = tested on: microbes (bacteria, yeasts and moulds); experiment: Preservation of cooling lubricant use dilutions; settings: 3-5% strength use dilutions, contaminated each day for 3 months; 3% preservative in cooling lubricant
Description: 3% of a preservative composed of 90% of benzyl alcohol mono(poly)hemiformaland 10% of active compound E is added to a cooling lubricant based on mineral oil.
3-5% strength use dilutions of the cooling lubricant are contaminated massively each day for 3 months with microbes (bacteria, yeasts and moulds) isolated from microbially decayed cooling lubricant use dilutions.

Compound | MIC [1] [µg/mL] | MIC [2] [µg/mL] | MIC [3] [µg/mL] | MIC [4] [µg/mL] | MIC [5] [µg/mL] | MIC [6] [µg/mL] | MIC [7] [µg/mL] | MIC [8] [µg/mL] | MIC [9] [µg/mL] | MIC [10] [µg/mL] | MIC [11] [µg/mL] | other results
O=c1[nH]c(-n2cccn2)nc2ccccc12 [Active compound A, 2-(1H-Pyrazol-1-yl)-4-(3H)-quinazolinone] | 100 (≈ 471 µM) | 5 (≈ 23.6 µM) | 20 (≈ 94.2 µM) | 100 (≈ 471 µM) | 20 (≈ 94.2 µM) | 20 (≈ 94.2 µM) | 30 (≈ 141 µM) | 20 (≈ 94.2 µM) | 1 (≈ 4.71 µM) | 100 (≈ 471 µM) | 100 (≈ 471 µM) | 
Cc1cnn(-c2nc3ccccc3c(=O)[nH]2)c1 [Active compound B, 2-(4-Methyl-1H-pyrazol-1-yl)-4(3H)-quinazolinone] | 50 (≈ 221 µM) | 10 (≈ 44.2 µM) | 75 (≈ 332 µM) | 50 (≈ 221 µM) | < 10 | 50 (≈ 221 µM) |  | < 10 |  | 7 (≈ 30.9 µM) | < 20 | 
Cc1ccn(-c2nc3ccccc3c(=O)[nH]2)n1 [Active compound C, 2-(3-Methyl-1H-pyrazol-1-yl)-4(3H)-quinazolinone] | 35 (≈ 155 µM) | 50 (≈ 221 µM) | 15 (≈ 66.3 µM) | 50 (≈ 221 µM) | 35 (≈ 155 µM) | 10 (≈ 44.2 µM) | 100 (≈ 442 µM) | 20 (≈ 88.4 µM) | < 0.1 | 75 (≈ 332 µM) | 5 (≈ 22.1 µM) | 
Cc1ccnn1-c1nc2ccccc2c(=O)[nH]1 [Active compound D, 2-(5-Methyl-1H-pyrazol-1-yl)-4(3H)-quinazolinone] | 35 (≈ 155 µM) | 35 (≈ 155 µM) | 15 (≈ 66.3 µM) | 50 (≈ 221 µM) | 15 (≈ 66.3 µM) | 50 (≈ 221 µM) | 75 (≈ 332 µM) | 20 (≈ 88.4 µM) | < 0.1 | 35 (≈ 155 µM) | 5 (≈ 22.1 µM) | 
CCc1cnn(-c2nc3ccccc3c(=O)[nH]2)c1 [Active compound F, 2-(4-Ethyl-1H-pyrazol-1-yl)-4(3H)-quinazolinone] | 50 (≈ 208 µM) | 50 (≈ 208 µM) |  | 50 (≈ 208 µM) | 30 (≈ 125 µM) | 50 (≈ 208 µM) | 30 (≈ 125 µM) | 20 (≈ 83.2 µM) |  | 35 (≈ 146 µM) | < 20 | 
Cc1cnn(-c2nc3ccc(Cl)cc3c(=O)[nH]2)c1 [Active compound G, 2-(4-Methyl-1H-pyrazol-1-yl)-6-chloro-4-(3H)-quinazolinone] |  |  |  |  |  | 5 (≈ 19.2 µM) |  |  | 1 (≈ 3.84 µM) | 7 (≈ 26.9 µM) | 1 (≈ 3.84 µM) | 
O=c1[nH]c(-n2cccn2)nc2cc(Cl)ccc12 [Active compound H, 2-(1H-Pyrazol-1-yl)-7-chloro-4(3H)-quinazolinone] |  |  |  |  |  |  | 100 (≈ 405 µM) |  |  |  |  | 
O=c1[nH]c(-n2cccn2)nc2ccc(Cl)cc12 [Example 32, 2-(1H-pyrazol-1-yl)-6-chloro-4(3H)-quinazolinone] |  |  |  |  |  |  |  |  |  |  |  | water solubility (in words) [12]: water-soluble
CN(C)C(=S)SSC(=S)N(C)C [tetramethylthiuram disulphide, reference compound] |  |  |  |  |  |  |  |  |  |  |  | content of fungicide at which PVA emulsion paint films are mould-resistant [13]: ≥ 4%
Isomer mixture of 2-(3- and 5-methyl-1H-pyrazol-1-yl)-4(3H)-quinazolinone [Active compound E] |  |  |  |  |  |  |  |  |  |  |  | MIC value, Aspergillus niger [1]: 50 µg/mL; content of fungicide at which PVA emulsion paint films are mould-resistant [13]: 0.5%; MIC value, Aureobasidium pullulans [2]: 15 µg/mL; MIC value, Alternaria tenuis [3]: 75 µg/mL; MIC value, Trichoderma viride [4]: 75 µg/mL; MIC value, Polyporus versicolor [5]: 35 µg/mL; MIC value, Sclerophoma pityophila [6]: 2 µg/mL; MIC value, Lentinus tigrinus [8]: 20 µg/mL; MIC value, Coniophora puteana [9]: 1 µg/mL; MIC value, Penicillium glaucum [10]: 35 µg/mL; MIC value, Chaetomium globosum [11]: 3 µg/mL
benzyl alcohol mono(poly)hemiformal |  |  |  |  |  |  |  |  |  |  |  | state of cooling lubricant use dilutions at the end of the testing period [14]: show attack by mould at the end of the testing period
